Results published in patent US12731806B2, “Electrolyte regeneration for organic redox flow batteries based on water-soluble phenazine-based compounds” (CMBLU Energy AG, priority 2020, dated 2026).
≈ marks a conversion by molar mass, not a printed value.

How the values were obtained:
physchem = conditions: aqueous buffer
[1] = Solubility of DHPS and its degradation species

Row | SMILES | solubility (physchem) | solubility in a DHPS solution ([1]; DHPS solution up to 0.5 M) | solubility ([1]; aqueous buffer)
1 | Oc1cc2nc3ccccc3nc2cc1O [DHP, Dihydroxyphenazine] | 200 to 400 mM (≈ 42.4 to 84.9 mg/mL) | – | –
2 | O=S(=O)(O)c1ccc2nc3cc(O)c(O)cc3nc2c1 [DHPS, 7,8-Dihydroxyphenazinesulfonic acid] | 1400 to 1600 mM (≈ 409 to 468 mg/mL) | – | –
3 | Oc1ccc2nc3ccccc3nc2c1 [MHP, Monohydroxyphenazine] | – | does not change significantly | 100 to 300 mM (≈ 19.6 to 58.9 mg/mL)
